From patent publication US20170121322A1, “BET-PROTEIN INHIBITING 3,4-DIHYDROPYRIDO[2,3-B]PYRAZINONES WITH META-SUBSTITUTED AROMATIC AMINO- OR ETHER GROUPS” (Bayer Pharma Aktiengesellschaft, priority 2014, published 2017)

Experiments:
[1] = target: T1, BRD4 bromo domain 2 [BRD4(2)] (Homo sapiens, UniProt O60885); test: BRD4(2)/acetylated peptide H4 TR-FRET binding assay; conditions: His6-BRD4(2) (aa 357-445) vs acetylated histone H4 peptide
T1 construct: N-terminally His6-tagged BRD4(2) (amino acids 357-445); made in house; host or cells: E. coli
Procedure, shortened: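 His6-BRD4(2) (aa 357-445, E. coli-expressed, 100 nM) pre-incubated 10 min with compound (11 concentrations, 0.1 nM-20 μM, duplicates), then with biotinylated tetra-acetylated H4 peptide in HEPES pH 7.5 buffer, 1 h at 22 °C plus 3 h to overnight at 4 °C. TR-FRET 665/620 ratio; IC50 from 4-parameter fit.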

[2] = test system: MOLM-13 cells; test: Cell proliferation assay MOLM-13, method 1 (alamarBlue); type: cell-based; conditions: Homo sapiens, acute myeloid leukaemia cells, 4000 cells/well, 96-well, 96 hours
Description: (§1) In accordance with the invention, the ability of the substances to inhibit cell proliferation was determined. Cell viability was determined by means of the alamarBlue® reagent (Invitrogen) in a Victor X3 Multilabel Reader (Perkin Elmer). The excitation wavelength was 530 nm and the emission wavelength […].
The MOLM-13 cells (DSMZ, ACC 554) were seeded at a concentration of 4000 cells/well in 100 μl of growth medium (RPMI1640, 10% FCS) on 96-well microtitre plates (method 1).
(§2) After overnight incubation at 37° C., the fluorescence values (CI values) were determined. Then the plates were treated with various substance dilutions (1E-5 M, 3E-6 M, 1E-6 M, 3E-7 M, 1E-7 M, 3E-8 M, 1E-8 M) and incubated at 37° C. over 96 hours (MOLM-13, B16F10, CHL-1 cells) or 120 hours (MOLP-8 cells). Subsequently, the fluorescence values were determined (CO values). For the data analysis, the CI values were subtracted from the CO values and the results were compared between cells which had been treated with various dilutions of the substance or only with buffer solution. The IC50 values (substance concentration needed for 50% inhibition of cell proliferation) were calculated therefrom.
(§3) The substances were tested in the cell lines in Table 2, which represent the indications specified by way of example: […]

[3] = test system: B16F10 cells; test: Cell proliferation assay B16F10 (alamarBlue); type: cell-based; conditions: Mus musculus, B16-F10, melanoma (BRAF wild-type) cells, 96 hours
Description: as §1
The B16F10 cells (ATCC, CRL-6475) were seeded at a concentration of 300-500 cells/well in 100 μl of growth medium (DMEM with phenol red, 10% FCS) on 96-well microtitre plates.
as §2, §3

IC50 [1]: 0.049 µM
IC50 [2]: 0.149 µM
IC50 [3]: 0.132 µM
Compound: COc1ccc(S(=O)(=O)C2CC2)cc1Nc1ccc2c(n1)N(C(C)C)[C@H](C)C(=O)N2C [Example 15, (3R)-6-{[5-(Cyclopropylsulphonyl)-2-methoxyphenyl]amino}-4-isopropyl-1,3-dimethyl-3,4-dihydropyrido[2,3-b]pyrazin-2(1H)-one]
